Test results taken from patent publication US10441663B2, “Methods for treating cancer” (Bicycle Therapeutics Limited, priority 2016, dated 2019).
*1 amine or outer side, *2 acyl side, *3 side chain or, on linkers, in order; H or OH if unused. Where a SMILES comes first, the peptide text is derived from it. Bridges are numbered along the chain shown (N, C = ends). [ ]: non-standard residue; d: D form. The star is where a group is joined. X1 = COc1cc2cc(c1Cl)N(C)C(=O)C[C@H](OC(=O)[C@H](C)N(C)C(=O)CCSSC(C)CCC(=O)*)[C@]1(C)O[C@H]1[C@H](C)[C@@H]1C[C@@](O)(NC(=O)O1)[C@H](OC)/C=C/C=C(\C)C2; 1Nal = N[C@@H](Cc1cccc2ccccc12)C(=O)O; TBMB = c1c(C[*:1])cc(C[*:3])cc1C[*:2]; Tle = CC(C)(C)[C@H](N)C(=O)O; βAla = NCCC(=O)O; Sar = CNCC(=O)O

Tests used:
[1] = target: MT1-MMP (Homo sapiens, UniProt P50281); assay: Fluorescence polarisation competition binding
Method: By means of comparison, a non-reducible BDC was prepared, BT1721, which includes a non-reducible maleimide thioether linkage which is […].

[2] = tested on: 3LL syngeneic model; assay: In vivo efficacy of BT1718 alone or in combination with Anti-PD-1 antibody in 3LL syngeneic model (Example 10); set-up: species or system Mus Musculus
Method: The objective of the research was to evaluate the in vivo anti-tumor efficacy of BT1718 alone or in combination with Anti-PD-1 antibody in the treatment of the subcutaneous 3LL syngeneic model in C57BL/6 mice.
The 3LL tumor cells were maintained in vitro as a monolayer culture in medium supplemented with 10% heat inactivated fetal bovine serum at 37° C. in an atmosphere of 5% CO2 in air. The tumor cells were routinely subcultured twice weekly by trypsin-EDTA treatment. The cells growing in an exponential growth phase will be harvested and counted for tumor inoculation.
Each mouse was inoculated subcutaneously at the right flank with 3LL tumor cells (1×106) in 0.1 ml of PBS for tumor development. The animals were randomized and treatment was started when the average tumor volume reaches approximately 105 mm^3 for the efficacy study. The test article administration and the animal numbers in each group were shown in the experimental design table (Table 52).
All the procedures related to animal handling, care and the treatment in the study were performed according to the guidelines of the Association for Assessment and Accreditation of Laboratory Animal Care (AAALAC). At the time of routine monitoring, the animals were daily checked for any effects of tumor growth and treatments on normal behavior such as mobility, food and water consumption (by looking only), body weight gain/loss (body weights were measured every day), eye/hair matting and any other abnormal effect as stated in the protocol. Death and observed clinical signs were recorded on the basis of the numbers of animals within each subset.
The major endpoint was to see if the tumor growth could be delayed or mice could be cured. Tumor size was measured three times weekly in two dimensions using a caliper, and the volume was expressed in mm^3 using the formula: V=0.5 a×b2 where a and b are the long and short diameters of the tumor, respectively. The tumor size was then used for calculations of T/C value. The T/C value (in percent) is an indication of antitumor effectiveness; T and C are the mean volumes of the treated and control groups, respectively, on a given day.
TGI was calculated for each group using the formula: TGI (%)=[1−(Ti−T0)/(Vi−V0)]×100; Ti is the average tumor volume of a treatment group on a given day, T0 is the average tumor volume of the treatment group on the day of treatment start, Vi is the average tumor volume of the vehicle control group on the same day with Ti, and V0 is the average tumor volume of the vehicle group on the day of treatment start.
Summary statistics, including mean and the standard error of the mean (SEM), are provided for the tumor volume of each group at each time point.
Statistical analysis of difference in tumor volume among the groups was conducted on the data obtained at the best therapeutic time point after the final dose.
A one-way ANOVA was performed to compare tumor volume among groups, and when a significant F-statistics (a ratio of treatment variance to the error variance) was obtained, comparisons between groups were carried out with Games-Howell test. All data were analyzed using Prism. P<0.05 was considered to be statistically significant.

[3] = tested on: MT1-positive tumor xenograft models (e.g. HT1080 fibrosarcoma; HCC1806 triple negative breast cancer; SNU-16 gastric cancer); assay: Selection of MT1-positive tumor xenograft models; type: in vivo
Source text: (§1) Efficacy in this model was reduced in the conjugates containing the least cleavable linkers.

[4] = Preliminary metabolism studies; type: in vivo
Source text: as §1

[5] = Vehicle, ip, biw + BT1718, 3 mpk, iv, biw, day 14
[6] = Vehicle, ip, biw + BT1718, 10 mpk, iv, biw, day 14

COc1cc2cc(c1Cl)N(C)C(=O)C[C@H](OC(=O)[C@H](C)N(C)C(=O)CCSSC(C)CCC(=O)NCCC(=O)N(C)CC(=O)N(C)CC(=O)N(C)CC(=O)N(C)CC(=O)N(C)CC(=O)N(C)CC(=O)N(C)CC(=O)N(C)CC(=O)N(C)CC(=O)N(C)CC(=O)N[C@@H](C)C(=O)N[C@H]1CSCc3cc4cc(c3)CSC[C@H](NC(=O)[C@@H](C)NC(=O)[C@H](Cc3cccc5ccccc35)NC(=O)[C@H](CCC(=O)O)NC(=O)[C@H](CC(N)=O)NC(=O)[C@@H](C)NC1=O)C(=O)N[C@@H](CCC(=O)O)C(=O)N[C@@H](CC(=O)O)C(=O)N[C@@H](Cc1ccccc1)C(=O)N[C@@H](Cc1ccc(O)cc1)C(=O)N[C@@H](CC(=O)O)C(=O)N[C@@H](C(C)(C)C)C(=O)N[C@H](C(N)=O)CSC4)[C@]1(C)O[C@H]1[C@H](C)[C@@H]1C[C@@](O)(NC(=O)O1)[C@H](OC)/C=C/C=C(\C)C2 (stereo partly shown) [BT1718] ({X1-βAla}-[Sar][Sar][Sar][Sar][Sar][Sar][Sar][Sar][Sar][Sar]AC[dA]NE[1Nal][dA]CEDFYD[Tle]C-NH2; linker 12-18-25 via TBMB (inferred))
Ki [1]: 0.9 nM | TGI ([2]; BT1718 3 mg/kg, day 14): 72.9% | Tumor Volume ([2]; BT1718 3 mg/kg, day 14): 612 mm^3 | TGI ([2]; BT1718 10 mg/kg, day 14): 98.1% | Tumor Volume ([2]; BT1718 10 mg/kg, day 14): 132 mm^3 | tumor volume trace over time ([2]; Vehicle, ip, biw + BT1718, 3 mpk, iv, biw, day 0): 96 ± 7 mm^3 | tumor volume trace over time ([2]; Vehicle, ip, biw + BT1718, 3 mpk, iv, biw, day 3): 167 ± 29 mm^3 | tumor volume trace over time ([2]; Vehicle, ip, biw + BT1718, 3 mpk, iv, biw, day 7): 320 ± 71 mm^3 | tumor volume trace over time ([2]; Vehicle, ip, biw + BT1718, 3 mpk, iv, biw, day 10): 396 ± 79 mm^3 | T/C [2, 5]: 30.6% | TGI [2, 5]: 72.9% | tumor volume trace over time [2, 5]: 612 ± 133 mm^3 | Tumor Volume ([2]; Vehicle, ip, biw + BT1718, 3 mpk, iv, biw, day 14, Mean ± SEM): 612 ± 133 mm^3 | tumor volume trace over time ([2]; Vehicle, ip, biw + BT1718, 3 mpk, iv, biw, day 17): 968 ± 211 mm^3 | tumor volume trace over time ([2]; Vehicle, ip, biw + BT1718, 3 mpk, iv, biw, day 21): 1177 ± 196 mm^3 | tumor volume trace over time ([2]; Vehicle, ip, biw + BT1718, 10 mpk, iv, biw, day 0): 96 ± 6 mm^3 | tumor volume trace over time ([2]; Vehicle, ip, biw + BT1718, 10 mpk, iv, biw, day 3): 134 ± 17 mm^3 | tumor volume trace over time ([2]; Vehicle, ip, biw + BT1718, 10 mpk, iv, biw, day 7): 141 ± 18 mm^3 | tumor volume trace over time ([2]; Vehicle, ip, biw + BT1718, 10 mpk, iv, biw, day 10): 128 ± 16 mm^3 | T/C [2, 6]: 6.6% | TGI [2, 6]: 98.1% | tumor volume trace over time [2, 6]: 132 ± 26 mm^3 | Tumor Volume ([2]; Vehicle, ip, biw + BT1718, 10 mpk, iv, biw, day 14, Mean ± SEM): 132 ± 26 mm^3 | tumor volume trace over time ([2]; Vehicle, ip, biw + BT1718, 10 mpk, iv, biw, day 17): 129 ± 33 mm^3 | tumor volume trace over time ([2]; Vehicle, ip, biw + BT1718, 10 mpk, iv, biw, day 21): 104 ± 41 mm^3 | tumor response ([3]; 10 mg/kg twice weekly): complete regressions in most models | minimally effective doses ([3]; weekly or twice weekly): 3 to 10 mg/kg | route of excretion [4]: excreted mainly through the kidney in urine
